Here are results for 2 compounds from patent US9833495B2, “Oral treatment of inflammatory bowel disease” (Defensin Therapeutics ApS, priority 2011, dated 2017).

The test system of this series is DSS-induced colitis in male C57BL/6 mice. The series is described as follows: 10-Day Dextran Sodium Sulphate (DSS)-induced colitis model in the mouse. The series is classed as in vivo. Conditions: for additional DAI score without change in body weight (only stool consistency and rectal bleeding): oral, 10-day treatment. From the text:
10-Day Dextran Sodium Sulphate (DSS)-Induced Colitis Model in the Mouse
The aim of the following study was to determine the anti-inflammatory activity of human beta defensin 2 in an acute (10-days) model of inflammatory bowel disease (colitis) induced by oral dextran sodium sulphate (DSS) administration in the mouse.
Study design: animals were divided into 5 experimental groups. Each group consisted of 10 males: Group A: Treated with Control vehicle (PBS) p.o. twice daily. Group B: Treated with methylprednisolone (1 mg/kg p.o. twice daily). Group C: Treated with hBD2 (0.05 mg/kg p.o. twice daily). Group D: Treated with hBD2 (0.5 mg/kg p.o. daily). Group E: Treated with hBD2 (5 mg/kg p.o. […]). Animal allocation to all experimental groups was done in a randomized manner. A maximum of 5 mice were housed in each cage (as per Directive 86/609/EEC). All animals were weighed on their arrival at the laboratory and prior to the administration of the test items.
The control vehicle and hBD2 were administered orally with the use of a sterile cannula in a dosing volume of 10 ml/kg body weith. The animals of all groups received 2 doses daily (at 9.00 h and 17.00 h) of the corresponding test item (test, reference or vehicle) for 10 consecutive days (experimental days 1-10).
Colitis was induced in mice by supplementing their drinking water with DSS 2% for 7 days. On Day 1 all mice were weighed and marked according to their experimental groups. The drinking bottle of each cage was filled with the DSS solution, making sure all bottle lids were mounted properly and that none were congested. On Day 3 any remaining solution in the bottles was emptied and refilled with fresh DSS solution. This procedure was repeated again on Day 5. On Day 8 any remaining solution was discarded and replaced with autoclaved water. Animals were sacrificed 2 days later on Day 10.
Daily clinical assessment of DSS-treated animals was carried out, with the calculation of a validated clinical Disease Activity Index (DAI) ranging from 0 to 4 according to the following parameters: stool consistency, presence or absence of rectal bleeding and weight loss:
Bodyweight loss was calculated as the percent difference between the original bodyweight (Day 1) and the actual bodyweight on each experimental day (2-10). The appearance of diarrhoea is defined as mucus/faecal material adherent to anal fur. Rectal bleeding is defined as diarrhoea containing visible blood/mucus or gross rectal bleeding. The maximum score of the DAI each day is 12.
On day 10, two hours after the last administration of control vehicle, hBD2 or prednisolone, the animals were killed by an overdose of anaesthetic. Their colons were removed and their length and weight measured after exclusion of the caecum. Two sections (proximal and distal) of colon were taken from each animal and preserved in neutral buffered formalin for subsequent histological analysis (haematoxylin and eosin staining) according to the following scoring system:
Description Score: No changes observed (0). Minimal scattered mucosal inflammatory cell infiltrates, with or without minimal epithelial hyperplasia (1). Mild scattered to diffuse inflammatory cell infiltrates, sometimes extending into the submucosa and associated with erosions, with minimal to mild epithelial hyperplasia and minimal to mild mucin depletion from goblet cells (2). Mild to moderate inflammatory cell infiltrates that were sometimes transmural, often associated with ulceration, with moderate epithelial hyperplasia and mucin depletion (3). Marked inflammatory cell infiltrates that were often transmural and associated with ulceration, with marked epithelial hyperplasia and mucin depletion (4). Marked transmural inflammation with severe ulceration and loss of intestinal glands (5). […]

The mark [1] stands for this setting: 1 mg/kg p.o. twice daily (Group B), day 10.

With `C[C@H]1C[C@@H]2[C@H]([C@@H](O)C[C@@]3(C)[C@H]2CC[C@]3(O)C(=O)COC(=O)CCC(=O)O)[C@@]2(C)C=CC(=O)C=C12` [Methylprednisolone 21-hemisuccinate, reference compound], the “additional DAI score without change in body weight (only stool consistency and rectal bleeding)” value is “very significant anti-inflammatory activity”. Further, under setting [1], the “histological injury induced by DSS in the distal colon” value is recorded as “significantly reduced” and the “histological injury induced by DSS in the proximal colon” value is reported as “significantly reduced”. For the same compound, the body weight result (group B, from day 2 until the end of the study) was “significant decrease”. Moreover, under “reference item, 1 mg/kg p.o. twice daily”, the “effect on disease activity index (DAI) vs vehicle” value is recorded as “significant inhibition”.

As to “Human beta defensin 2 (GIGDPVTCLKSGAICHPVFCPRRYKQIGTCGLPGTKCCKKP; mat_peptide; listed as Homo sapiens) [NZ39000]”, the “additional DAI score without change in body weight (only stool consistency and rectal bleeding)” value was “very significant anti-inflammatory activity”. In addition, under “10-Day DSS-induced colitis model in the mouse”, the “severity of disease parameters” value is “significantly reduce”. Further, the “Disease Activity Index (DAI)” value (hBD2 0.05 mg/kg p.o., Day 10, mean ± SEM, n=10, P < 0.05 vs vehicle) is reported as 8 ± 0.73. Where the note is “high dose of test item, day 10 (P<0.05)”, the “body weight vs control group” value is on record as “significant increase”. Also, the “histological damage score of proximal and distal colons” value (orally administered, day 10) is “very significant reduction”. For the same compound, the “effect on disease activity index (DAI) vs vehicle” value (three dose levels (0.05, 0.5, 5 mg/kg) via the oral route) is “significant inhibition”. Also, the “histological damage in the proximal colon” value (twice daily, at 3 dose levels, p.o., day 10) is “significant reduction”. Besides, the “histological damage in the distal colon” value (twice daily, intermediate and high dose levels, p.o., day 10) is given as “significant reduction”.
